By pIC50 is commonly meant the IC50 on a negative log10 scale, so that one unit is a factor of ten.

SMILES strings stand for the structures. pIC50: −log10 of the molar value.

T1 sequence (P42345 1362-2549): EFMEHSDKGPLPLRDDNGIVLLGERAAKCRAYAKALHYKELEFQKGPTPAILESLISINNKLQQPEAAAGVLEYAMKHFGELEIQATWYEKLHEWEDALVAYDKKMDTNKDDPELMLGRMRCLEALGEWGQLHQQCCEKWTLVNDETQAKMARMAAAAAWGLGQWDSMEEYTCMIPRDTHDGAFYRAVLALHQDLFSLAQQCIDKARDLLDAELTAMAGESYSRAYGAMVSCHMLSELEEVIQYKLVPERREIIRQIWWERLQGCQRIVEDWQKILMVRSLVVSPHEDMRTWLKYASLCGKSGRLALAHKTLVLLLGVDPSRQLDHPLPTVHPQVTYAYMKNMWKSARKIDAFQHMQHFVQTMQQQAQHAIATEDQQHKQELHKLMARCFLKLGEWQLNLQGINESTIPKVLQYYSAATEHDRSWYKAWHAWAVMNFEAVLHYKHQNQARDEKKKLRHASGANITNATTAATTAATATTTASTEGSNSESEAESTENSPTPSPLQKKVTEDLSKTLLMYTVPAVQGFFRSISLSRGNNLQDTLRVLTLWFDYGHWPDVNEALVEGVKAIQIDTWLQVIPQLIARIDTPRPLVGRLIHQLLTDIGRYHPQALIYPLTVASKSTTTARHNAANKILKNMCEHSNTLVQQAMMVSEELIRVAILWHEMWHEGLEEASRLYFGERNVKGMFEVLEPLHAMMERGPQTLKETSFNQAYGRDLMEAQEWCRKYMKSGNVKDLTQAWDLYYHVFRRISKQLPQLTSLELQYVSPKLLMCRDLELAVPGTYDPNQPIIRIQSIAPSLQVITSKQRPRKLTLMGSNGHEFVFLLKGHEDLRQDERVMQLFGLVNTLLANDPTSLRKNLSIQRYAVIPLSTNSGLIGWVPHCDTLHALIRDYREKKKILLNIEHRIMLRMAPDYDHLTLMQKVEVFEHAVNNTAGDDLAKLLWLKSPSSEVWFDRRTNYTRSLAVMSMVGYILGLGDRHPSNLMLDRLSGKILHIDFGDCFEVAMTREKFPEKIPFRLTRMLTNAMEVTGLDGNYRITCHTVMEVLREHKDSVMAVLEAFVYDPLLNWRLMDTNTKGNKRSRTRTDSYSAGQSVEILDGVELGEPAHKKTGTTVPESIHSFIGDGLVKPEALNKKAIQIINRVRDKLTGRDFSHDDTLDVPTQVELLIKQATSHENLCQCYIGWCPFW

This test addresses T1, mTOR (Homo sapiens, UniProt P42345).
T1 construct: FLAG; made in house
In words: In Vitro mTOR Kinase Assay (Echo), Test (a)(ii). Type of test: biochemical. Particulars: table of enzyme assay Test (a)(ii); read-out: Test (a)(ii) IC50. The essentials: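 FLAG-tagged truncated mTOR (residues 1362-2549), expressed in HEK293 and purified via the FLAG tag, phosphorylated a biotinylated peptide over 2 hours at room temperature. EDTA stopped the reaction. Phospho-T389 was detected overnight by AlphaScreen using the p70 S6K T389 antibody with Protein A/streptavidin beads; IC50 reported.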
Take `C[C@H]1COCCN1c1cc(C2(S(=O)(=O)c3ccccc3)CC2)nc(-c2ccc(NC(=O)NC3(CO)CC3)cc2)n1` [Example 36bo, 1-[4-[4-[1-(benzenesulfonyl)cyclopropyl]-6-[(3S)-3-methylmorpholin-4-yl]pyrimidin-2-yl]phenyl]-3-[1-(hydroxymethyl)cyclopropyl]urea]: the negative-log IC50 (pIC50) is 7.75.
In the case of `C[C@H]1COCCN1c1cc(C2(S(=O)(=O)c3ccccc3)CC2)nc(-c2ccc(NC(=O)NC3COC3)cc2)n1` [Example 36bp, 1-[4-[4-[1-(benzenesulfonyl)cyclopropyl]-6-[(3S)-3-methylmorpholin-4-yl]pyrimidin-2-yl]phenyl]-3-(oxetan-3-yl)urea] it was 8.70; in that of `C[C@H]1COCCN1c1cc(C2(S(=O)(=O)c3ccccc3)CC2)nc(-c2ccc(NC(=O)Nc3ncns3)cc2)n1` [Example 36bq, 1-[4-[4-[1-(benzenesulfonyl)cyclopropyl]-6-[(3S)-3-methylmorpholin-4-yl]pyrimidin-2-yl]phenyl]-3-(1,2,4-thiadiazol-5-yl)urea], 8.88.
The result for `C[C@H]1COCCN1c1cc(C2(S(=O)(=O)c3ccccc3)CC2)nc(-c2ccc(NC(=O)Nc3cnn(C)c3)cc2)n1` [Example 36br, 1-[4-[4-[1-(benzenesulfonyl)cyclopropyl]-6-[(3S)-3-methylmorpholin-4-yl]pyrimidin-2-yl]phenyl]-3-(1-methylpyrazol-4-yl)urea] reads 8.73; that for `CNC(=O)Nc1ccc(-c2nc(N3CCOC[C@@H]3C)cc(C3(S(=O)(=O)c4ccccc4)CCC3)n2)cc1` [Example 36bu, 1-[4-[4-[1-(benzenesulfonyl)cyclobutyl]-6-[(3S)-3-methylmorpholin-4-yl]pyrimidin-2-yl]phenyl]-3-methylurea], 8.93.
Regarding `C[C@H]1COCCN1c1cc(C2(S(=O)(=O)c3ccccc3)CCC2)nc(-c2ccc(NC(=O)Nc3cnn(C)c3)cc2)n1` [Example 36bv, 1-[4-[4-[1-(benzenesulfonyl)cyclobutyl]-6-[(3S)-3-methylmorpholin-4-yl]pyrimidin-2-yl]phenyl]-3-(1-methylpyrazol-4-yl)urea], the pIC50 was 8.58.
Turning to `C[C@H]1COCCN1c1cc(C2(S(=O)(=O)c3ccccc3)CCCC2)nc(-c2ccc(NC(=O)NC3CC3)cc2)n1` [Example 36bw, 1-[4-[4-[1-(benzenesulfonyl)cyclopentyl]-6-[(3S)-3-methylmorpholin-4-yl]pyrimidin-2-yl]phenyl]-3-cyclopropylurea], the pIC50 was 8.04.
The result for `C[C@H]1COCCN1c1cc(C2(S(=O)(=O)c3ccccc3)CCCC2)nc(-c2ccc(NC(=O)NCCO)cc2)n1` [Example 36bx, 1-[4-[4-[1-(benzenesulfonyl)cyclopentyl]-6-[(3S)-3-methylmorpholin-4-yl]pyrimidin-2-yl]phenyl]-3-(2-hydroxyethyl)urea] reads 8.57; that for `C[C@H]1COCCN1c1cc(C2(S(=O)(=O)c3ccccc3)CCCC2)nc(-c2ccc(NC(=O)NCCCO)cc2)n1` [Example 36by, 1-[4-[4-[1-(benzenesulfonyl)cyclopentyl]-6-[(3S)-3-methylmorpholin-4-yl]pyrimidin-2-yl]phenyl]-3-(3-hydroxypropyl)urea], 7.92.
As to `C[C@H]1COCCN1c1cc(C2(S(=O)(=O)c3ccccc3)CCCC2)nc(-c2ccc(NC(=O)NCCC#N)cc2)n1` [Example 36bz, 1-[4-[4-[1-(benzenesulfonyl)cyclopentyl]-6-[(3S)-3-methylmorpholin-4-yl]pyrimidin-2-yl]phenyl]-3-(2-cyanoethyl)urea], the negative logarithm of the IC50 (pIC50) was 7.84.
In the case of `C[C@H]1COCCN1c1cc(C2(S(=O)(=O)CCCO)CC2)nc(-c2ccc(NC(=O)NCc3ncc[nH]3)cc2)n1` [Example 36c, 1-[4-[4-[1-(3-hydroxypropylsulfonyl)cyclopro-pyl]-6-[(3S)-3-methylmorpholin-4-yl]pyrimidin-2-yl]phenyl]-3-(1H-imidazol-2-ylmethyl)urea] it was 6.94; in that of `CNC(=O)Nc1ccc(-c2nc(N3CCOC[C@@H]3C)cc(C3(S(=O)(=O)CCCO)CCOCC3)n2)cc1` [Example 36ca, 1-[4-[4-[4-(3-hydroxypropylsulfonyl)oxan-4-yl]-6-[(3S)-3-methylmorpholin-4-yl]pyrimidin-2-yl]phenyl]-3-methylurea], 6.51.
For the molecule `CCNC(=O)Nc1ccc(-c2nc(N3CCOC[C@@H]3C)cc(C3(S(=O)(=O)CCCO)CCOCC3)n2)cc1` [Example 36cb, 1-ethyl-3-[4-[4-[4-(3-hydroxypropylsulfonyl)oxan-4-yl]-6-[(3S)-3-methylmorpholin-4-yl]pyrimidin-2-yl]phenyl]urea], the negative logarithm of the IC50 (pIC50) is 6.79.
For the molecule `C[C@H]1COCCN1c1cc(C2(S(=O)(=O)CCCO)CCOCC2)nc(-c2ccc(NC(=O)NC3CC3)cc2)n1` [Example 36cc, 3-cyclopropyl-1-[4-[4-[4-(3-hydroxypropylsulfonyl)oxan-4-yl]-6-[(3S)-3-methylmorpholin-4-yl]pyrimidin-2-yl]phenyl]urea], the pIC50 is 6.89.
In the case of `C[C@H]1COCCN1c1cc(C2(S(=O)(=O)CCCO)CCOCC2)nc(-c2ccc(NC(=O)NC3CCC3)cc2)n1` [Example 36cd, 3-cyclobutyl-1-[4-[4-[4-(3-hydroxypropylsulfonyl)oxan-4-yl]-6-[(3S)-3-methylmorpholin-4-yl]pyrimidin-2-yl]phenyl]urea] it was 6.83; in that of `C[C@H]1COCCN1c1cc(C2(S(=O)(=O)CCCO)CCOCC2)nc(-c2ccc(NC(=O)NCCC#N)cc2)n1` [Example 36ce, 3-(2-cyanoethyl)-1-[4-[4-[4-(3-hydroxypropylsulfonyl)oxan-4-yl]-6-[(3S)-3-methylmorpholin-4-yl]pyrimidin-2-yl]phenyl]urea], 6.38; in that of `CCCNC(=O)Nc1ccc(-c2nc(N3CCOC[C@@H]3C)cc(C3(S(=O)(=O)CCCO)CCOCC3)n2)cc1` [Example 36cf, 3-[4-[4-[4-(3-hydroxypropylsulfonyl)oxan-4-yl]-6-[(3S)-3-methylmorpholin-4-yl]pyrimidin-2-yl]phenyl]-1-propylurea], 6.54.
With `C[C@H]1COCCN1c1cc(C2(S(=O)(=O)CCCO)CCOCC2)nc(-c2ccc(NC(=O)NCCO)cc2)n1` [Example 36cg, 3-(2-hydroxyethyl)-1-[4-[4-[4-(3-hydroxypropylsulfonyl)oxan-4-yl]-6-[(3S)-3-methylmorpholin-4-yl]pyrimidin-2-yl]phenyl]urea], the negative logarithm of the IC50 (pIC50) is 6.87.
For `C[C@H]1COCCN1c1cc(C2(S(=O)(=O)CCCO)CCOCC2)nc(-c2ccc(NC(=O)Nc3cnn(C)c3)cc2)n1` [Example 36ch, 1-[4-[4-[4-(3-hydroxypropylsulfonyl)oxan-4-yl]-6-[(3S)-3-methylmorpholin-4-yl]pyrimidin-2-yl]phenyl]-3-(1-methylpyrazol-4-yl)urea], the negative logarithm of the IC50 (pIC50) is 6.68.
The result for `C[C@H]1COCCN1c1cc(C2(S(=O)(=O)CCCO)CCOCC2)nc(-c2ccc(NC(=O)Nc3nccs3)cc2)n1` [Example 36ci, 1-[4-[4-[4-(3-hydroxypropylsulfonyl)oxan-4-yl]-6-[(3S)-3-methylmorpholin-4-yl]pyrimidin-2-yl]phenyl]-3-(1,3-thiazol-2-yl)urea] reads 7.41; that for `C[C@H]1COCCN1c1cc(C2(S(=O)(=O)CCCO)CC2)nc(-c2ccc(NC(=O)Nc3nccs3)cc2)n1` [Example 36cj, 1-[4-[4-[1-(3-hydroxypropylsulfonyl)cyclopropyl]-6-[(3S)-3-methylmorpholin-4-yl]pyrimidin-2-yl]phenyl]-3-(1,3-thiazol-2-yl)urea], 8.48.
In the case of `C[C@H]1COCCN1c1cc(C2(S(=O)(=O)CCCO)CC2)nc(-c2ccc(NC(=O)N(C)C3CC3)cc2)n1` [Example 36ck, 1-cyclopropyl-3-[4-[4-[1-(3-hydroxypropylsulfonyl)cyclopropyl]-6-[(3S)-3-methylmorpholin-4-yl]pyrimidin-2-yl]phenyl]-1-methylurea] it was 5.58; in that of `C[C@H]1COCCN1c1cc(C2(S(=O)(=O)CCCO)CC2)nc(-c2ccc(NC(=O)NC3(C)CC3)cc2)n1` [Example 36cl, 1-[4-[4-[1-(3-hydroxypropylsulfonyl)cyclopropyl]-6-[(3S)-3-methylmorpholin-4-yl]pyrimidin-2-yl]phenyl]-3-(1-methylcyclopropyl)urea], 7.17.
The result for `C[C@H]1COCCN1c1cc(C2(S(=O)(=O)CCCO)CC2)nc(-c2ccc(NC(=O)NCC(F)F)cc2)n1` [Example 36cm, 3-(2,2-difluoroethyl)-1-[4-[4-[1-(3-hydroxypropylsulfonyl)cyclopropyl]-6-[(3S)-3-methylmorpholin-4-yl]pyrimidin-2-yl]phenyl]urea] reads 8.02; that for `C[C@H]1COCCN1c1cc(C2(S(=O)(=O)CCCO)CC2)nc(-c2ccc(NC(=O)NC(C)(C)C)cc2)n1` [Example 36cn, 3-tert-butyl-1-[4-[4-[1-(3-hydroxypropylsulfonyl)cyclopropyl]-6-[(3S)-3-methylmorpholin-4-yl]pyrimidin-2-yl]phenyl]urea], 7.07.
`C[C@H]1COCCN1c1cc(C2(S(=O)(=O)CCCO)CC2)nc(-c2ccc(NC(=O)NC#N)cc2)n1` [Example 36co, 3-cyano-1-[4-[4-[1-(3-hydroxypropylsulfonyl)cyclopropyl]-6-[(3S)-3-methylmorpholin-4-yl]pyrimidin-2-yl]phenyl]urea]: the negative logarithm of the IC50 (pIC50) is 5.79.
Take `C[C@H]1COCCN1c1cc(C2(S(=O)(=O)CCCO)CC2)nc(-c2ccc(NC(=O)N3CCC(O)C3)cc2)n1` (stereo partly drawn) [Example 36cp, 3-hydroxy-N-[4-[4-[1-(3-hydroxypropylsulfonyl)cyclopropyl]-6-[(3S)-3-methylmorpholin-4-yl]pyrimidin-2-yl]phenyl]pyrrolidine-1-carboxamide]: the pIC50 was 5.90.
In the case of `C[C@H]1COCCN1c1cc(C2(S(=O)(=O)CCCO)CC2)nc(-c2ccc(NC(=O)NCCS(C)(=O)=O)cc2)n1` [Example 36cq, 1-[4-[4-[1-(3-hydroxypropylsulfonyl)cyclopropyl]-6-[(3S)-3-methylmorpholin-4-yl]pyrimidin-2-yl]phenyl]-3-(2-methylsulfonylethyl)urea] it was 6.94.

Values taken from US20090018134A1, “Compounds - 945” (AstraZeneca AB, priority 2007, published 2009).
